Data from patent publication US10017574B2, “Methods, kits and devices for promoting cardiac regeneration” (Yeda Research and Development Co. Ltd., priority 2015, dated 2018).
Entries after “also recorded” stand apart in the source; their conditions may differ.

What was measured:
caErbb2 CMs [1] = assay: Dedifferentiation (RUNX1 expression, sarcomeric disassembly) of P7 caErbb2 CMs treated in vitro with inhibitors or factors; type: cell-based, mouse; conditions: P7 neonatal caErbb2 heart cells, treated in vitro for 2 days
Description: (§1) Doxycycline inducible CM restricted overexpression of a constitutively active Erbb2 (caErbb2) was generated by crossing TetRE-caErbb2 mouse line^65 (a B6SJLF1/J transgenic line in which this mutated Erbb2 is placed under the control of a minimal CMV promoter and the tetracycline-responsive element) with αMHC-tTA^66, which expresses the tetracycline-responsive transcriptional activator (tTA) under the control of the human alpha myosin heavy chain promoter (αMHC) promoter (see FIG. 10A). αMHC-tTA strain was created in the FVB background and then the line was backcrossed to C57BL/6. Doxycycline (DOX, Harlan Laboratories) was administered in the food to repress transgene expression.
(§2) Primary cardiomyocytes were isolated from 1-day-old (P1) and 7-days-old (P7) mice using a neonatal dissociation kit (gentleMACS, Germany), according to the manufacturer's instructions, and cultured in gelatin-coated (0.1%, G1393, Sigma, St. Louis, Mo., USA) wells with DMEM/F12 medium supplemented with L-glutamine, Na-pyruvate, Non-essential amino acids, penicillin, streptomycin, 5% Horse serum and 10% FBS (hereafter referred to as “complete-medium”) at 37° C. and 5% CO2.
(§3) In cultures isolated from hearts of P7 ctrl and caErbb2-cOE animals, the cells were seeded in the aforementioned complete-medium for 48 hours, in the presence of the following substances: MEK/MAPKK kinase inhibitor regarded in the text as ERK inhibitor (2 μM, PD0325901, Tocris Bioscience, Bristol, UK), AKT1/2 inhibitor (5 μM, AKT inhibitor VIII, ApexBio, Houston, Tex., USA), GSK3β inhibitor (10 μM, CHIR-99021, Axon Medchem, Netherlands), β-Catenin inhibitor (10 μM, IWR-1, Sigma, St. Louis, Mo., USA), p38 inhibitor (10 μM SB202190, Merck Millipore, Massachusetts, USA), Periostin (500 ng/ml; BioVendor, Brno Czech Republic), FGF1 (100 ng/ml; R&D Systems, MN, USA). The dissolving reagents were added to unstimulated samples. Subsequently, cells were fixed in 4% PFA and stained for markers of interest.
(§4) Heart sections underwent deparaffinization, fixation in 4% PFA (5 minutes) and microwave antigen retrieval in EDTA or citric acid buffer, followed by gradual chilling. Then heart sections and cultured cells were processed in the following manner. Samples were permeabilized with 0.5% Triton X-100 in PBS for 5 minutes and blocked with 5% bovine serum albumin (BSA, Sigma, St. Louis, Mo., USA) in PBS containing 0.1% Triton for 1 hour at room temperature. Then samples were incubated 1 hour at room temperature or overnight at 4° C. with the following antibodies diluted in 3% BSA blocking solution: anti-Troponin T (1:200, ab33589, Abcam, Cambridge, Mass., USA), anti-Troponin I (1:200, ab47003, Abcam, Cambridge, Mass., USA) or anti-NKX2.5 (1:200, ab35842, Abeam, Cambridge, Mass., USA) Abs were used to identify CMs. Anti-Ki67 antibody (1:200, 275R, Cell Marque, Austin, Tex., USA) anti-BRDU antibody (1:100, G3G4, DSHB, Iowa City, Iowa, USA), anti-phosphorylated-Histone3 (pH3) antibody (1:200, SC-8656-R, Santa Cruz Biotechnology Inc., Santa Cruz, Calif., USA) and anti-Aurora B (1:100, 611082, BD Transduction Laboratories, Lexington, Ky., USA) were used to analyze cell cycle re-entry, DNA synthesis, karyokinesis and cytokinesis, respectively. Other Abs used in the study: anti-ErbB2 (1:50, sc-284, Santa Cruz Biotechnology Inc., Santa Cruz, Calif., USA), anti-αSMA (1:50, A5691, Sigma, St. Louis, Mo., USA), RUNX1 (1:200, ab92336, Abcam, Cambridge, Mass., USA), anti-DAB2 (1:200, sc-13982, Santa Cruz Biotechnology Inc., Santa Cruz, Calif., USA), anti-β-Catenin (1:200, ab32572, Abcam, Cambridge, Mass., USA). After three washes with PBS, 10 minutes each, samples were stained for 1 hour at room temperature or overnight at 4° C. with fluorescent secondary antibodies (Abeam, Cambridge, Mass., USA) followed by 10 minutes of DAPI (4,6-diamidino-2-phenylindole dihydrochloride) staining for nuclei visualization. […]

caErbb2 CMs [2] = assay: Hypertrophy (cell area) of P7 caErbb2 CMs treated in vitro with inhibitors or factors; type: cell-based, mouse; conditions: P7 neonatal caErbb2 heart cells, treated in vitro for 2 days
Description: as §1, §2, §3, §4

caErbb2 CMs [3] = assay: Cell-cycle re-entry (Ki67) of P7 caErbb2 CMs treated in vitro with inhibitors or factors; type: cell-based, mouse; conditions: P7 neonatal caErbb2 heart cells, treated in vitro for 2 days
Description: as §1, §2, §3, §4

β-Catenin in caErbb2 CMs = assay: β-Catenin immunofluorescence in P7 caErbb2 heart cells treated in vitro with inhibitors; type: cell-based, mouse; conditions: P7 neonatal caErbb2 heart cells, 10 μM
Description: as §1
Primary cardiomyocytes were isolated from 1-day-old (P1) and 7-days-old (P7) mice using a neonatal dissociation kit (gentleMACS, Germany), according to the manufacturer's instructions, and cultured in gelatin-coated (0.1%, G1393, Sigma, St. Louis, Mo., USA) wells with DMEM/F12 medium supplemented with L-glutamine, Na-pyruvate, Non-essential amino acids, penicillin, streptomycin, 5% Horse serum and 10% FBS (hereafter referred to as “complete-medium”) at 37° C. and 5% CO2. […]

neonatal Erbb2-cKO CMs = assay: NRG1-stimulated proliferation of cultured CMs from P1 Erbb2-cKO mice (Ki67, pH3, newly formed CMs); type: cell-based, mouse; conditions: CMs isolated from P1 Erbb2-cKO mice, NRG1 in vitro
Description: CM-restricted deletion of Erbb2 (Erbb2-cKO) was generated by crossing Erbb2^flox/flox 41 to Erbb2^lacZ/+; αMHC-Cre mice (see FIG. 2A). The Erbb2^lacZ/+ mice used in this study carry an allele that encodes a nonfunctional ErbB2-galactosidase fusion protein lacking the tyrosine kinase domain^42. In some experiments, addition of ROSA26-tdTomato allele to this system has been used to label cardiac muscle cell lineage in Erbb2-cKO mice. Erbb2^flox/flox and Erbb2^lacZ/+ mice were maintained on a C57BL/6 background. […]
(§5) Heart sections underwent deparaffinization, fixation in 4% PFA (5 minutes) and microwave antigen retrieval in EDTA or citric acid buffer, followed by gradual chilling. […] Slides were mounted with Immu-mount (9990412, Thermo scientific, MA, USA) and viewed under a fluorescence microscope (Nikon Intensilight or Nikon eclipse 90i, Nikon, Düsseldorf, Germany) or spinning disk confocal microscope (Carl Zeiss, Thornwood, N.Y., USA) as specified in the figure legends.

P1 and P7 mouse CMs = assay: NRG1-stimulated proliferation of cultured P1 and P7 cardiomyocytes (Ki67, BrdU, pH3, AuroraB immunofluorescence, counting newly formed CMs); type: cell-based; conditions: various NRG1 doses, 72 hours
Description: as §2
In experiments involving administration of Neuregulin-1b (NRG1, R&D Systems, MN, USA), the cells were allowed to adhere for 48 hours in complete-medium. Subsequently, the medium was replaced with an FBS-deprived complete-medium containing the indicated NRG1 doses for 72 hours. BrdU (10 μM, B5002, Sigma, St. Louis, Mo., USA) was introduced along with NRG1. Cells were fixed in 4% PFA and stained for markers of interest.
as §5

**Q.** `O=c1[nH]c2ccccc2n1C1CCN(Cc2ccc(-c3nc4cc5[nH]cnc5cc4nc3-c3ccccc3)cc2)CC1` [AKT inhibitor, AKT inhibitor VIII] was tested. Which “caErbB2-induced CM dedifferentiation (sarcomeric disassembly and RUNX1 expression)” value (caErbb2 CMs [1]) did it give?
**A.** promoted massive dedifferentiation

**Q.** And the “caErbB2-induced hypertrophic response (CM cell area)” value (caErbb2 CMs [2])?
**A.** reduced hypertrophic response

**Q.** And the “caErbB2-induced CM proliferation / cell cycle re-entry (Ki67)” value (caErbb2 CMs [3])?
**A.** moderate effect

**Q.** Which results are given for `O=C(NOC[C@H](O)CO)c1ccc(F)c(F)c1Nc1ccc(I)cc1F` [ERK inhibitor, PD0325901]?
**A.** caErbB2-induced CM dedifferentiation (sarcomeric disassembly and RUNX1 expression) (caErbb2 CMs [1]): completely suppressed; caErbB2-induced hypertrophic response (CM cell area) (caErbb2 CMs [2]): reduced the hypertrophic response; caErbB2-induced CM proliferation / cell cycle re-entry (Ki67) (caErbb2 CMs [3]): completely suppressed

**Q.** `Cc1c[nH]c(-c2cnc(NCCNc3ccc(C#N)cn3)nc2-c2ccc(Cl)cc2Cl)n1` [GSK3β inhibitor, CHIR-99021] was tested. Which “RUNX1 expression in caErbb2 CMs” value (caErbb2 CMs [1]) did it give?
**A.** further increased

**Q.** What about the “β-Catenin accumulation in caErbb2 CMs” value (β-Catenin in caErbb2 CMs) of the same molecule?
**A.** further increased

**Q.** And the “caErbB2-induced CM proliferation / cell cycle re-entry (Ki67)” value (caErbb2 CMs [3])?
**A.** promoted β-Catenin independent increase in cell cycle activity

**Q.** How did the “RUNX1 expression in caErbb2 CMs” value (caErbb2 CMs [1]) turn out when `Oc1ccc(-c2nc(-c3ccncc3)c(-c3ccc(F)cc3)[nH]2)cc1` [p38 inhibitor, SB202190] was run?
**A.** increased

**Q.** And the “caErbB2-induced hypertrophic response (CM cell area)” value (caErbb2 CMs [2])?
**A.** No obvious effects

**Q.** And the “caErbB2-induced CM proliferation / cell cycle re-entry (Ki67)” value (caErbb2 CMs [3])?
**A.** enhanced

**Q.** What does the source list for `O=C(Nc1cccc2cccnc12)c1ccc(N2C(=O)[C@@H]3[C@H](C2=O)[C@@H]2C=C[C@H]3C2)cc1` [β-Catenin inhibitor, IWR-1]?
**A.** RUNX1 expression in caErbb2 CMs (caErbb2 CMs [1]): reduced; caErbB2-induced hypertrophic response (CM cell area) (caErbb2 CMs [2]): without significantly affecting; caErbB2-induced CM proliferation / cell cycle re-entry (Ki67) (caErbb2 CMs [3]): without significantly affecting

**Q.** FGF1 was tested. Which “RUNX1 expression in caErbb2 CMs” value (caErbb2 CMs [1]) did it give?
**A.** p38 inhibition, in contrast to FGF1 and Periostin, increased RUNX1 expression

**Q.** And the “caErbB2-induced hypertrophic response (CM cell area)” value (caErbb2 CMs [2])?
**A.** No obvious effects

**Q.** And the “caErbB2-induced CM proliferation / cell cycle re-entry (Ki67)” value (caErbb2 CMs [3])?
**A.** enhanced

**Q.** With Neuregulin-1b [NRG1] as the molecule, how does the “CM proliferation (Ki67, pH3, newly formed CMs)” value (neonatal Erbb2-cKO CMs) read?
**A.** unable to induce CM proliferation

**Q.** And the “CM proliferation (cell cycle activity, DNA synthesis, mitosis, cytokinesis, newly formed CMs)” value (P1 and P7 mouse CMs; P1 mouse CMs in vitro)?
**A.** dose-dependent increase

**Q.** What about the “CM proliferation (cell cycle activity, DNA synthesis, mitosis, cytokinesis, newly formed CMs)” value (P1 and P7 mouse CMs; P7 mouse CMs in vitro) of the same molecule?
**A.** profoundly reduced effects; also recorded: diminished

B1: Periostin (protein, UniProt Q15063 22-836, looked up)
Periostin: NNHYDKILAHSRIRGRDQGPNVCALQQILGTKKKYFSTCKNWYKKSICGQKTTVLYECCPGYMRMEGMKGCPAVLPIDHVYGTLGIVGATTTQRYSDASKLREEIEGKGSFTYFAPSNEAWDNLDSDIRRGLESNVNVELLNALHSHMINKRMLTKDLKNGMIIPSMYNNLGLFINHYPNGVVTVNCARIIHGNQIATNGVVHVIDRVLTQIGTSIQDFIEAEDDLSSFRAAAITSDILEALGRDGHFTLFAPTNEAFEKLPRGVLERIMGDKVASEALMKYHILNTLQCSESIMGGAVFETLEGNTIEIGCDGDSITVNGIKMVNKKDIVTNNGVIHLIDQVLIPDSAKQVIELAGKQQTTFTDLVAQLGLASALRPDGEYTLLAPVNNAFSDDTLSMDQRLLKLILQNHILKVKVGLNELYNGQILETIGGKQLRVFVYRTAVCIENSCMEKGSKQGRNGAIHIFREIIKPAEKSLHEKLKQDKRFSTFLSLLEAADLKELLTQPGDWTLFVPTNDAFKGMTSEEKEILIRDKNALQNIILYHLTPGVFIGKGFEPGVTNILKTTQGSKIFLKEVNDTLLVNELKSKESDIMTTNGVIHVVDKLLYPADTPVGNDQLLEILNKLIKYIQIKFVRGSTFKEIPVTVYTTKIITKVVEPKIKVIEGSLQPIIKTEGPTLTKVKIEGEPEFRLIKEGETITEVIHGEPIIKKYTKIIDGVPVEITEKETREERIITGPEIKYTRISTGGGETEETLKKLLQEEVTKVTKFIEGGDGHLFEDEEIKRLLQGDTPVRKLQANKKVQGSRRRLREGRSQ
notes: Periostin protein (500 ng/ml; BioVendor)
**Q.** For B1, which “RUNX1 expression in caErbb2 CMs” value (caErbb2 CMs [1]) is on record?
**A.** p38 inhibition, in contrast to FGF1 and Periostin, increased RUNX1 expression

**Q.** And the “caErbB2-induced hypertrophic response (CM cell area)” value (caErbb2 CMs [2])?
**A.** No obvious effects

**Q.** What about the “caErbB2-induced CM proliferation / cell cycle re-entry (Ki67)” value (caErbb2 CMs [3]) of the same molecule?
**A.** enhanced
